According to US8691820B2, “CDK inhibitors” (Curis, Inc., priority 2008, dated 2014):

molecular target: T1, CDK2/cyclinA (Homo sapiens, UniProt P24941); experiment: CDK2 kinase assay (33P-ATP, Histone H1 substrate); format: biochemical; conditions: 1 μM ATP, 5 μM Histon H1, 2 hours at room temperature
T1 construct: C-terminal 6His-tagged human full length cdk2 (MW=35 kDa); 6His (C); made in house; host or cells: Sf21 insect cells (baculovirus)
Description: CDK2/cyclinA (Accession number for CDK2; EMBL M68520, for cyclin A; EMBL X51688): C-terminal 6His-tagged human full length cdk2 (MW=35 kDa), and N-terminal GST-tagged human full length cyclin A (MW=75 kDa) were expressed individually with baculovirus system in Sf21 insect cells. Recombinant cdk2 protein was purified with Ni2+/NTA agarose and then activated using CAK and repurified by Q Sepharose and Ni2+/NTA agarose. Recombinant cyclin A was purified using glutathione-agarose. They were then mixed in vitro to form protein complex. Recombinant protein complex was measured to be 67% in purity with SDS-PAGE and Coomassie blue staining. Specific activity of purified enzyme was measured to be 158 U/mg, where one unit of cdk2/cyclinA activity is defined as 1 nmol phosphate incorporated into 0.1 mg/ml histone H1 per minute at 30° C. with a final ATP concentration of […]. Enzyme was stored at a concentration of 0.1 mg/ml in 50 mM Tris/HCl pH7.5, 150 mM NaCl, 0.1 mM EGTA, 0.03% Brij-35, 270 mM sucrose, 1 mM benzamidine, 0.2 mM PMSF, 0.1% 2-mercaptoethanol. Frozen solution.
Histon H1 (Substrate for CDK2): Histone H1 (Sigma cat#H4524), was purified as a lysine rich fraction from calf thymus with 93% purity (MW=21.5 kDa). Purified protein was stored at a concentration of 20 mg/ml=930 μM in distilled water.
[…] (0.5 nmol) and 5 μM Histon H1 were mixed in the reaction buffer (20 mM HEPES (pH 7.5), 10 mM MgCl2, 1 mM EGTA, 0.02% Brij 35, 0.02 mg/ml BSA, 0.1 mM Na3VO4, 2 mM DTT) with final concentration of 1 μM ATP and 1% DMSO. The reaction was incubated for 2 hours at room temperature and conversion rate of ATP is about 4.5%. An equal volume of 25% TCA was added to stop the reaction and precipitate the labeled peptides. Precipitated proteins were trapped onto glass fiber B filterplates and excess […] p33 ATP was washed off. The plates were allowed to air-dry prior to the addition of 30 uL/well of Packard Microscint 20. The amount of incorporated isotope was measured using a Perkin Elmer TopCount plate reader. Different concentrations of compounds were added to reaction to assess the activity of compounds to inhibit […]. IC50 was calculated using Prism software with sigmoidal dose-response curve fitting.
The following TABLE B lists compounds representative of the invention and their activity in the CDK2 assay. In this assay, the following grading was used: I≧10 μM, 10 μM>II>1 μM, 1 μM>III>0.1 μM, and IV≦0.1 μM for IC50.

Row | Compound | IC50 [nM]
1 | CC(C)(C)c1cnc(CSc2cnc(NC(=O)Cc3ccc(OCCCC(=O)Nc4ccncc4)cc3)s2)o1 [Compound 62, 4-(4-(2-(5-((5-tert-butyloxazol-2-yl)methylthio)thiazol-2-ylamino)-2-oxoethyl)phenoxy)-N-(pyridin-4-yl)butanamide] | ≤ 100
2 | CC(C)(C)c1cnc(CSc2cnc(NC(=O)Oc3ccc(OCCCC(=O)Nc4ccccc4N)cc3)s2)o1 [Compound 54, 4-(4-(2-Aminophenylamino)-4-oxobutoxy)phenyl 5-((5-tert-butyloxazol-2-yl)methylthio)thiazol-2-ylcarbamate] | ≤ 100
3 | CN(O)C(=O)CCCOc1ccc(CC(=O)Nc2ncc(SCc3ncc(C(C)(C)C)o3)s2)cc1 [Compound 32, 4-(4-(2-(5-((5-tert-butyloxazol-2-yl)methylthio)thiazol-2-ylamino)-2-oxoethyl)phenoxy)-N-hydroxy-N-methylbutanamide] | ≤ 100
4 | CONC(=O)CCCCCCC(=O)Nc1ncc(SCc2ncc(C(C)(C)C)o2)s1 [Compound 1, N^1-(5-((5-tert-butyloxazol-2-yl)methylthio)thiazol-2-yl)-N^8-methoxyoctanediamide] | ≤ 100
5 | CC(C)(C)c1cnc(CSc2cnc(NC(=O)Cc3ccc(OCCCCCC(=O)Nc4ccccc4N)cc3)s2)o1 [Compound 36, N-(2-aminophenyl)-6-(4-(2-(5-((5-tert-butyloxazol-2-yl)methylthio)thiazol-2-ylamino)-2-oxoethyl)phenoxy)hexanamide] | ≤ 100
6 | CC(C)(C)c1cnc(CSc2cnc(NC(=O)CCCCC(=O)Nc3ccccc3N)s2)o1 [Compound 16, N1-(2-aminophenyl)-N6-(5-((5-tert-butyloxazol-2-yl)methylthio)thiazol-2-yl)adipamide] | ≤ 100
7 | CC(Sc1cnc(NC(=O)Cc2ccc(OCCCC(=O)Nc3ccccc3N)cc2)s1)c1ncc(C(C)(C)C)o1 (centres unmarked) [Compound 58, N-(2-aminophenyl)-4-(4-(2-(5-(1-(5-tert-butyloxazol-2-yl)ethylthio)thiazol-2-ylamino)-2-oxoethyl)phenoxy)butanamide] | ≤ 100

Results, then the molecule that gave them:

Row | IC50 [nM] | Compound
8 | ≤ 100 | CC(C)(C)c1cnc(CSc2cnc(NC(=O)CCCCCCC(=O)NOC3CCCCO3)s2)o1 (centres unmarked) [Compound 3, N^1-(5-((5-tert-butyloxazol-2-yl)methylthio)thiazol-2-yl)-N^8-(tetrahydro-2H-pyran-2-yloxy)octanediamide]
9 | ≤ 100 | CC(C)(C)c1cnc(CSc2cnc(NC(=O)CC(=O)Nc3ccccc3N)s2)o1 [Compound 13, N1-(2-aminophenyl)-N3-(5-((5-tert-butyloxazol-2-yl)methylthio)thiazol-2-yl)malonamide]
10 | ≤ 100 | CC(C)(C)c1cnc(CSc2cnc(NC(=O)CCCCCCC(=O)n3nnc4ccccc43)s2)o1 [Compound 40, 8-(1H-benzo[d][1,2,3]triazol-1-yl)-N-(5-((5-tert-butyloxazol-2-yl)methylthio)thiazol-2-yl)-8-oxooctanamide]
11 | ≤ 100 | CN1OC(=O)CC1c1ccc(C(=O)Nc2ncc(SCc3ncc(C(C)(C)C)o3)s2)cc1 (centres unmarked) [Compound 51, N-(5-((5-tert-butyloxazol-2-yl)methylthio)thiazol-2-yl)-4-(2-methyl-5-oxoisoxazolidin-3-yl)benzamide]
12 | ≤ 100 | CC(C)(C)c1cnc(CSc2cnc(NC(=O)Cc3ccc(OCCCC(=O)Nc4cc(F)ccc4N)cc3)s2)o1 [Compound 60, N-(2-amino-5-fluorophenyl)-4-(4-(2-(5-((5-tert-butyloxazol-2-yl)methylthio)thiazol-2-ylamino)-2-oxoethyl)phenoxy)butanamide]
13 | ≤ 100 | CC(C)(C)c1cnc(CSc2cnc(NC(=O)Cc3cccc(OCCCC(=O)Nc4ccccc4N)c3)s2)o1 [Compound 56, N-(2-aminophenyl)-4-(3-(2-(5-((5-tert-butyloxazol-2-yl)methylthio)thiazol-2-ylamino)-2-oxoethyl)phenoxy)butanamide]
14 | ≤ 100 | CC(C)(C)c1cnc(CSc2cnc(NC(=O)Nc3ccccc3N)s2)o1 [Compound 27, 1-(2-Aminophenyl)-3-(5-((5-tert-butyloxazol-2-yl)methyl-thio)thiazol-2-yl)urea]
